The record followed here is patent US20150031760A1, “PHARMACEUTICAL COMPOSITION FOR PREVENTING OR TREATING NERVOUS SYSTEM DISORDERS COMPRISING SULFURETIN OR PHARMACEUTICALLY ACCEPTABLE SALT THEREOF” (Research and Business Foundation SUNGKYUNKWAN UNIVERSITY, priority 2010, published 2015).

Holding throughout (type): cell-based, human
The test system of test [1] is BACE1. Kind of test: Western blot, BACE1 level. Particulars: Swedish APP mutant SH-SY5Y cells; sulfuretin 2.5, 5, 10 and 20 μM for 24 h; dose-dependent (p<0.001). Here is the method:
For the experiments shown in FIGS. 11 to 13, SH-SY5Y and stable swedish APP mutant SH-SY5Y cells were grown in DMEM supplemented with 10% heat-inactivated FBS and 0.1% penicillin/streptomycin at 37° C. in a humidified atmosphere of 5% CO2 and 95% air. Cells were fed every three days and sub-cultured once they reached 80-90% confluency in […] cell culture dishes. Amyloid beta25-35 was prepared as a 20 mM stock immediately before use and diluted in PBS to the indicated final concentration. Prior to use, amyloid beta25-35 was dissolved in sterilized distilled water and was aggregated at 37° C. for five days. The test compounds were dissolved in DMSO and the stock solutions were added directly to the culture media to a final concentration of 0.1% (v/v) DMSO.
SH-SY5Y and stable swedish APP mutant SH-SY5Y cells (1×10^6 cells/well in 6-well plates) were incubated at 37° C. with or without 20 μM amyloid beta 25-35 for 6 or 24 h, with or without sulfuretin pretreatment, and then washed and harvested with ice-cold PBS and centrifuged at 400×g for 3 minutes. […] The protein concentration was determined using a protein assay kit (Thermo Scientific). […] Protein bands were quantified by densitometric analysis using Image Gauge 4.0 software (Fujifilm, Stamford, Conn., USA). […]
For orientation: Immunoblotting shows a protein as a band on a membrane.

Test [2] relates to SH-SY5Y cells. Kind of test: Inhibition of mitochondrial membrane potential (MMP) damage (rhodamine-123). To be noted: hydrogen peroxide-induced damage, 30 minutes pretreatment. As for the experimental part: (§1) The incubator was maintained at a temperature of 37° C., and a mixed gas of 95% air and 5% CO2 was continuously supplied thereto to provide suitable conditions for cell culture. The cells were cultured in a 6-well plate or a 96-well plate at each of densities of 1×10^6 and 2×10^4 cells/well 24 hours before the experiment. […] Sulfuretin was used in ethanol and used at a final concentration of 0.1% or less.
In order to measure the inhibition of MMP damage, cells were labeled with rhodamine-123 fluorescence, and quantitative analysis was performed using a fluorescence meter. Specifically, the 6-well plate in which the cells have been cultured was pretreated with sulfuretin for 30 minutes and then reacted with hydrogen peroxide for 30 minutes to induce MMP damage. Then, 10 μl of 10 μM rhodamine-123 was added to each well of the plate and allowed to react for 30 minutes. Herein, rhodamine-123 in the incubator was covered with a silver foil such that it would not be exposed to light. The cells that reacted with the rhodamine-123 fluorescent substance were detached with cold PBS and centrifuged at 400 g for 3 minutes. The centrifugation process was repeated twice to wash the fluorescent substance. The washed cells were stirred briefly with 0.5 ml of PBS, and 100 μl was dispensed into each well of a fresh 96-well plate. The fluorescence of the cells was measured at an excitation wavelength of 480 nm and an emission wavelength of 530 nm using a fluorescence meter (Perkinelmer, USA).
The measured fluorescence was substituted into the following equation to calculate ΔΨm:
ΔΨm(%)=[(O.D. of control−O.D. of test group)/O.D. of control]×100

In test [3] the test system is PARP. Kind of test: Western blot, PARP expression. Particulars: SH-SY5Y cells. As for the experimental part:
as §1
In order to identify the effect of sulfuretin on the expression of proteins related to dementia, Alzheimer's disease, Parkinson's disease and strokes, a Western blot test was carried out.
After 24 hours, the supernatant of each well was collected and centrifuged at 400 g for 3 minutes, and the cells were washed with cold PBS and lysed with 100 μl of T-PER lysis buffer (Thermo, USA) for 30 minutes. The lysates were centrifuged at 10000 g at 4° C. for 15 minutes, and the supernatants were stored at […] until use as test samples. Proteins were quantitatively analyzed using a BCA assay kit (Thermo, USA) and separated within 8.5-12% SDS gel and then transferred to PVDF membranes. To examine the expression of the proteins, the development of fluorescence was analyzed by enhanced chemiluminescence (ECL). Specifically, the membrane was blocked with 5% skimmed non-fat milk for 1 hour and labeled with the primary antibodies, PARP, caspase-3, phospho-p38, phospho-JNK and β-actin at 4° C. overnight. Then, the membrane was washed three times with Tris-tween buffered saline (TTBS), and then labeled with horseradish peroxidase (HRP)-conjugated anti-rabbit and anti-mouse secondary antibodies at room temperature for 1 hour. Then, the membrane was washed five times with TTBS for 10 minutes. The washed film was developed by ECL using x-ray films, and concentrations were quantitatively analyzed using quantitative analysis program (Fujifilm, Japan).

Take `O=C1/C(=C/c2ccc(O)c(O)c2)Oc2cc(O)ccc21` [sulfuretin]: the BACE1 level entry in test [1] was “significantly inhibited”. The “MMP (ΔΨm)” value in test [2] (sulfuretin 0.1 μg/ml) is at least 56%; in test [2] (sulfuretin 0.5 μg/ml), at least 62%; in test [2] (sulfuretin 1 μg/ml) it was at least 91%; in test [2] (sulfuretin 5 μg/ml) it was at least 98%. Moreover, the PARP expression is given as at least 70% in test [3] (hydrogen peroxide + sulfuretin 0.1 μg/ml), at least 92% in test [3] (hydrogen peroxide + sulfuretin 0.5 μg/ml) and at least 99% in test [3] (hydrogen peroxide + sulfuretin 1 μg/ml).
